Experimental data taken from US20130039928A1, “COMPOSITIONS AND METHODS FOR REVERSING CORTICOSTEROID RESISTANCE OR TREATING RESPIRATORY INFECTIONS” (priority 2010, published 2013).
Entries after “also recorded” stand apart in the source; their conditions may differ.

Columns and labels:
[1] = system: HDAC2; format: cell-based, human; settings: COPD alveolar macrophages
Procedure: (§1) For inducing corticosteroid resistance, PMs were exposed to cigarette smoke condensate (CSC, 100 μg/ml; Murty Pharmaceuticals, Lexington, Ky.) for 16 h. Exposure to S-nitrosoglutathione (GSNO, 10 μM) was limited to 4 h. […] For assessing corticosteroid responsiveness, macrophages were incubated with dexamethasone (1 μM, Sigma) for 1 h followed by LPS (100 ng/ml, Sigma) for additional 4 h.
(§2) All immunoblots were performed by using protocols as described previously (Barnes, P. J., N Engl J Med 343, 269-280 (2000)). Rabbit anti-HDAC2 antibody from Santa Cruz Biotechnology (Santa Cruz, Calif.) was used at 1:500 dilutions. Rabbit anti-5-nitroso-cysteine antibody from Alpha diagnostics was used at 1:500 dilutions. Rabbit anti-nitro-tyrosine antibody from Cell Signaling Technology, was used at 1:250 dilution. Rabbit anti-ubiquitin antibody from Santa Cruz Biotechnology (Santa Cruz, Calif.) was used at 1:1000 dilutions. Rabbit anti-GR antibody from Santa Cruz Biotechnology (Santa Cruz, Calif.) was used at a dilution of 1:1000. Rabbit anti-MMP9 antibody from Sigma Aldrich was used at 1:500 dilutions. Rabbit anti-acetyl-lysine antibody from Abcam was used at 1:750 dilutions. Rabbit anti-lamin-B1 from Santa Cruz Biotechnology (Santa Cruz, Calif.) was used at 1:1000 dilutions as a loading control. The Image J program was used for densitometry analyses.
Total RNA was extracted from the cells by lysis and specific binding to a silica membrance (Qiagen RNeasy kit, Qiagen, Valencia, Calif.), and qRT-PCR was performed by using primers and probe sets for human IL-8, NQO1, GCLM, and iNOS (Assay-on-Demand, Applied Biosystems, Foster City, Calif.). A real-time fluorescent PCR system (ABI 7000 Taqman system, Applied Biosystems) was used to perform these assays. β-actin was used as the normalization control.

[2] = system: GSH; settings: COPD alveolar macrophages, 5 μM for 16 h
Procedure: as §1
(§3) HDAC activity was measured using a fluorescent derivative of ε-acetyl-lysine from Enzo life sciences (Farmingdale, N.Y.) according to the manufacturer's recommendations. HDAC2 was immunoprecipitated for analysis of enzymatic activity.

[3] = system: HDAC; settings: COPD alveolar macrophages, versus vehicle
Procedure: as §1, §3

[4] = system: glucocorticoid receptor; assay: Acetylated glucocorticoid receptor levels in alveolar macrophages; format: cell-based, human; settings: compared to vehicle control
Procedure: as §2

[5] = system: IL-8; assay: Corticosteroid responsiveness: basal and LPS-induced IL-8 secretion by alveolar macrophages; format: cell-based, human
Procedure: as §1
For human IL-8 and mouse IL-6 and MCP-1 proteins, Quantikine ELISA kits from R&D systems (Minneapolis, Minn.) were used according to the manufacturer's instructions.

[6] = system: MMP9
[7] = system: Pseudomonas aeruginosa; assay: Clearance of bacteria in vitro by alveolar macrophages (PA); format: cell-based
Procedure: Human alveolar macrophages were purified from individual BAL samples by centrifugation and seeded onto 6-well tissue culture plates. After incubation for 2 h, non-adherent cells were removed and the adherent cells were incubated with R, S-sulforaphane (5 μM; LKT Laboratories, Inc., St. Paul, Minn.) and or DMSO in RPMI 1640 culture medium with 10% FBS and 1% penicillin-streptomycin (Invitrogen, Carlsbad, Calif.). After 16-20 h, adherent cells were scraped, suspended in RPMI 1640 culture media and plated onto 96-well tissue culture plates for bacterial phagocytosis and clearance assays. […] For MARCO antibody-depletion, alveolar macrophages were incubated with human anti-MARCO antibody (1 μg/ml; (Hycult, Uden, The Netherlands) for 4 hours prior to bacterial challenge.
Sputum isolates of nontypeable H. influenzae and P. aeruginosa obtained from patients with COPD at the Department of Veterans Affairs, Western New York Healthcare System were used (S. Sethi, N. Evans, B. J. Grant, T. F. Murphy, N Engl J Med 347, 465 (Aug. 15, 2002); C. S. Berenson, M. A. Garlipp, L. J. Grove, J. Maloney, S. Sethi, J Infect Dis 194, 1375 (Nov. 15, 2006); T. F. Murphy et al., Am J Respir Crit Care Med 177, 853 (Apr. 15, 2008); T. F. Murphy, A. L. Brauer, A. T. Schiffmacher, S. Sethi, Am J Respir Crit Care Med 170, 266 (Aug. 1, 2004)). For bacterial growth, H. influenzae was cultured on chocolate agar or grown in brain heart infusion broth supplemented with 20 μg/mlNAD and 10 μg/ml hemin at 35° C. in 5% CO2. P. aeruginosa was cultured on LB agar plates or in LB broth at 37° C. For FITC-labeling of bacteria, heat inactivated PA and NTHI (10^9 CFU/ml) were resuspended in 1 ml of labeling buffer (0.1 M NaHCO3, pH 9.2) and incubated with fluorescein isothiocyanate (FITC) (Sigma) under constant stiffing in the dark at room temperature for 1 h. Finally, bacteria were washed three times with PBS and dialyzed overnight against PBS. FITC-labeled bacteria were resuspended with PBS at a concentration of 10^9/ml.
After treatment, macrophages (10^5 cells) were incubated with bacteria (PA or NTHI) for 4 h. Subsequently, 100 μL of cell free culture medium was aseptically plated and cultured on tryptose blood and or chocolate agar plates at 37° C. The number of bacterial colonies was counted after 24 h.

For `C[S+]([O-])CCCCN=C=S` (stereo not shown) [sulforaphane], the “HDAC2 mRNA levels” value [1] was “without altering the levels of HDAC2 mRNA; also recorded: no effect on HDAC2 mRNA expression”, the HDAC2 protein levels [1] was “up-regulated HDAC2 protein levels” and the GSH levels [2] was “significantly elevated”. For the same compound, the “enzymatic activity of total HDAC” value [3] was “significantly elevated”, the “levels of acetylated-glucocorticoid receptor” value [4] was “significant decrease in the levels of acetylated-glucocorticoid receptor” and the “DEX sensitivity (histone acetylation on IL-8 promoter, IL-8 expression)” value ([5]; in the presence of buthionine sulfoximine (BSO)) was “failed to improve DEX sensitivity”. For the same compound, the IL-8 levels ([5]; sulforaphane alone, basally and after LPS treatment) was “significantly reduced IL-8 levels”, the “DEX's inhibitory effect on basal and LPS-induced IL-8 secretion (fold reduction)” value ([5]; sulforaphane treatment then DEX, P<0.01, N=25 patients) was 5 fold and the “secretory levels of active MMP9” value [6] was “significantly reduced”. For the same compound, the “levels of S-nitrosylated MMP9” value ([6]; biotin-switch assay) was “significantly reduced”, the “clearance of Pseudomonas aeruginosa (decrease in CFU in culture medium)” value ([7]; COPD alveolar macrophages, compared to vehicle, 4 h with bacteria) was 40-95% and the bacterial clearance ([7]; alveolar macrophages from non-COPD subjects) was “significantly enhanced bacterial clearance”. For the same compound, the “bactericidal activity towards Pseudomonas aeruginosa” value ([7]; cell-free medium with sulforaphane alone) was “no bactericidal activity”.
